Assay results from patent US20220380341A1, “INHIBITORS OF HIV-1 NEF FOR THE TREATMENT OF HIV DISEASE” (priority 2018, published 2022).
Where two headings read alike, the source gives them in different places.

Columns and labels:
HIV-1 Nef SF2 = molecular target: T1, HIV-1 Nef SF2 (Human immunodeficiency virus type 1 group M subtype B, UniProt P03407); experiment: biochemical; type: binding; conditions: two-step induced-fit model, Reichert SPR, read-out: Reichert SPR Nef SF2 (M) two-step fitting
T1 construct: made in house

TZM-bl cell line = type: cell-based; conditions: human, 1 μM
How it was run: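 Nef-dependent infectivity in TZM-bl cells: HIV-1NL4-3 infection with 1 μM compound, luciferase read at 48 h, normalized against DMSO wild-type and Nef-defective controls. Compound cytotoxicity in uninfected cells measured by Cell Titer Blue.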

[1] = molecular target: Nef from SIV (strain mac239) (Simian immunodeficiency virus, UniProt Q5QGG3); experiment: biochemical
Experimental: Also shown are SPR data recorded on a Reichert 4-channel SPR instrument. […] Recombinant Nef is immobilized on the biosensor surface, and each compound is injected and association/dissociation kinetics are recorded. The resulting data for the 3 isoforms are each best-fit using both a two-site model and a two-step, induced-fit model. Dissociation constants (KD), calculated from the kinetic association and dissociation constants from all three isoforms, are shown in columns 6-7. Data were fit using three regimes and the resulting KD: from each model are shown in the Table: 1:1 Langmuir fit; 2-site fit, which yields low and high affinity components; and a 2-step induced fit model.

HIV-1 NefNL4-3 = HIV-1 NefNL4-3 (Human immunodeficiency virus type 1 group M subtype B, UniProt P03406, A33V/T15A/T51N/V11I); experiment: Surface plasmon resonance binding to recombinant full-length Nef (NL4-3); conditions: for T, minutes (residence time): 2-step induced fit, T = 1/koff2; for RU30/RUNef (extent of binding): response units at 30 μM relative to Nef immobilized on the SPR chip
HIV-1NL4-3 = experiment: HIV-1 infectivity assay in TZM-bl reporter cell line (LTR-luciferase, 48 h); type: cell-based; conditions: Human immunodeficiency virus 1, TZM-bl
How it was run: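 Read-out is luciferase from an integrated HIV-1 LTR reporter in TZM-bl cells, 48 h after HIV-1NL4-3 infection in the presence of 1 μM compound. Scale set by DMSO-treated wild-type-infected cells (0%) and Nef-defective virus (100% Nef-dependent effect). Cell Titer Blue measures cytotoxicity without virus.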

HIV-1 NL4-3 = experiment: HIV-1 replication in normal donor PBMCs (p24 Gag AlphaLISA); type: cell-based; conditions: Human immunodeficiency virus 1, NL43, PBMC, 96 h, Table 2, 4 days
Experimental: (§1) FIG. 4. Inhibition of HIV-1 replication by compounds disclosed herein in PBMCs. Donor PBMCs were infected with HIV-1 in the presence of inhibitor concentrations ranging from 1 to 1,000 nM or the DMSO carrier solvent as a negative control (0.1% DMSO final). Replication was assessed by p24 Gag AlphaLISA (Perkin Elmer) […]. Each donor was also infected with Nef-defective HIV-1 to establish the baseline for Nef-dependent enhancement of replication in each culture. Cytotoxicity was assessed in uninfected PBMCs over the same incubation period using the CellTiter-Blue assay (Promega). Data were fit by non-linear regression analysis (GraphPad Prism v.7.04) to determine the IC50 and CC50 values shown.
The tables also show data for HIV-1 Replication in normal donor peripheral blood mononuclear cells (PBMCs), which is assay is conducted as follows:
(§2) Non-HLA-typed buffy coats (Source: Pittsburgh Central Blood Bank, #E3755) are received and processed within 24 hours of blood donation. PBMCs are isolated via rocking for RBC separation following 1:1 dilution with PBS, followed by Ficoll gradient centrifugation. The lymphocyte fraction is removed and washed several times for a final concentration of ˜150-300×10^6 cells per donor. Cells are activated for 3 days with 1-5 μg/mL PHA (Sigma) and 50 U/mL IL-2. Cells are plated at 750,000 cells/ml and viability is checked at day 3 using the Cell Titer Blue assay (Promega). If cells are >90% viable, then they are infected with HIV-1 NL4-3, wild-type or Δ-Nef mutant (input typically 30-500 pg/mL p24 capsid equivalents) in the presence or absence of Nef inhibitor analogs. IL-2 is included in the media at the time of infection. After 4 days, cells are lysed with 1% Triton X-100 for 1.5 h, checked for viability via Cell Titer Blue, and frozen/stored at −20° C. HIV-1 replication is assessed with a high-sensitivity HIV-1 p24 AlphaLISA assay (Perkin Elmer) in ½-volume 96-well plates, using one-half of the recommended assay volumes for all reagents (including samples). Assays are read on the BioTek Cytation5 instrument; readout is in AlphaUnits and replication in p24 pg/mL is determined using an HIV-1 p24 capsid protein standard included in the Alpha kit.

uninfected PBMCs = type: cell-based; conditions: human
Experimental: as §1, §2

[2] = KD, M, Table 4, SPR fit 2-step induced fit, KD = koff/kon × koff2/(koff2 + kon2)
[3] = Nef NL4-3 Binding, SPR 2-state fitting KD, Table 1, 2-step induced-fit model
[4] = Reichert SPR Nef NL43 (M) two-step fitting, KD, two-step induced-fit model, Reichert SPR, Table 3
[5] = read-out: Nef NL4-3 Binding, SPR 1:1 or 2-site fitting KD2, Table 1, 2-site fit, second component
[6] = 1.0 μM, TZM-bl reporter cell line, Table 4, read-out: % Infectivity Inhibition
[7] = 1 μM, TZM-bl, normalized: DMSO wild-type HIV-1 = 0%, Nef-defective HIV-1 = 100%, read-out: HIV-1 Infectivity % Inhibition norm. to Δ-Nef @ 1 μM
[8] = 48 h, Table 1, TZM-bl cells, 1 μM, 48 h, 100% = Nef-defective HIV-1, read-out: HIV-1 Infectivity % Inhibition Norm. to Δ-Nef @ 1 μM

| SMILES | Kd (HIV-1 Nef SF2) | % Cell Viability (TZM-bl cell line) | Percent Viability @ 1 μM (TZM-bl cells) (TZM-bl cell line) | Kd [1] | Kd (HIV-1 NefNL4-3) | Kd (HIV-1 NefNL4-3; [2]) | Kd (HIV-1 NefNL4-3; [3]) | Kd (HIV-1 NefNL4-3; [4]) | T, minutes (residence time) (HIV-1 NefNL4-3; Table 4) | Kd (HIV-1 NefNL4-3; [5]) | RU30/RUNef (extent of binding) (HIV-1 NefNL4-3) | inhibition at 1 µM (HIV-1NL4-3; [6]) | inhibition at 1 µM (HIV-1NL4-3; [7]) | inhibition at 1 µM (HIV-1NL4-3; [8]) | Kd (HIV-1 NefNL4-3; Nef NL4-3 Binding, SPR 1:1 or 2-site fitting KD2, Table 1, 2-site fit, second component) | IC50 (HIV-1 NL4-3) | Kd (HIV-1 NefNL4-3; Nef NL4-3 Binding, SPR 2-state fitting KD, Table 2, 2-step induced-fit model) | Kd (HIV-1 NefNL4-3; read-out: Nef NL4-3 Binding, SPR 1:1 or 2-site fitting KD2, Table 2, 2-site fit, second component) | inhibition at 1 µM (HIV-1NL4-3; 48 h, Table 2, TZM-bl cells, 1 μM, 48 h, 100% = Nef-defective HIV-1, read-out: HIV-1 Infectivity % Inhibition Norm. to Δ-Nef @ 1 μM) | Toxicity in HIV Replication PBMC (Toxic @ concentration) (uninfected PBMCs) |
| --- | --- | --- | --- | --- | --- | --- | --- | --- | --- | --- | --- | --- | --- | --- | --- | --- | --- | --- | --- | --- |
| Oc1c(CC2CCOCC2)c(-c2ccc(F)cc2)nn1-c1nc2ccccc2[nH]1 [Compound I-151, 1-(1H-1,3-benzodiazol-2-yl)-3-(4-fluorophenyl)-4-[(oxan-4-yl)methyl]-1H-pyrazol-5-ol] | 3.5e-06 M | 83.0% | 83.0% | 1460 nM | 5.34e-07 M | 6.26e-06 M | 5.65e-06 M | 5.65e-06 M | 4.68E + 00 minutes | 4.65e-05 M | 8.50E- 03 | 100% | 106% | 106% | – | – | – | – | – | – |
| Oc1c(CCc2ccc(F)cc2)c(C2CC2)nn1-c1nc2cc(Cl)ccc2[nH]1 [Compound I-170, 1-(5-chloro-1H-1,3-benzodiazol-2-yl)-3-cyclopropyl-4-[2-(4-fluorophenyl)ethyl]-1H-pyrazol-5-ol] | 4.9e-07 M | 98.8% | 98.8% | 2.87 nM | – | 1.25e-08 M | 1.25e-08 M | 1.25e-08 M | 8.01E + 02 minutes | 1.99e-06 M | 2.34E- 02 | 67.1% | 67.1% | 67.1% | – | – | – | – | – | – |
| CC(C)(C)OC(=O)N1CCC(CCc2c(-c3cccc(S(C)(=O)=O)c3)nn(-c3nc4ccccc4[nH]3)c2O)CC1 [Compound I-210, tert-butyl 4-{2-[1-(1H-1,3-benzodiazol-2-yl)-5-hydroxy-3-(3-methanesulfonylphenyl)-1H-pyrazol-4-yl]ethyl}piperidine-1-carboxylate] | 4.31e-06 M | 83.7% | 83.7% | 709 nM | 8.86e-07 M | 4.56e-06 M | 4.56e-06 M | 4.56e-06 M | 1.06E + 01 minutes | 8.12e-06 M | 5.18E- 03 | 95.4% | 95.4% | 95.4% | – | – | – | – | – | – |
| Oc1c(CCc2ccc(F)cc2)c(C2CC2)nn1-c1nc2cccnc2[nH]1 [Compound I-308, 3-cyclopropyl-4-[2-(4-fluorophenyl)ethyl]-1-{3H-imidazo[4,5-b]pyridin-2-yl}-1H-pyrazol-5-ol] | 2.91e-06 M | 100% | 100.1% | 3850 nM | 9.41e-07 M | 4.06e-06 M | 4.06e-06 M | 4.06e-06 M | 5.81E + 00 minutes | – | 6.06E- 03 | 61.4% | 61.4% | 61.4% | 2.21e-06 M | – | – | – | – | – |
| Oc1c(CCc2ccc(F)cc2)c(-c2ccc(C(F)(F)F)cc2)nn1-c1cc(C(F)(F)F)n[nH]1 [Compound I-601, 4-[2-(4-fluorophenyl)ethyl]-5′-(trifluoromethyl)-3-[4-(trifluoromethyl)phenyl]-2′H-[1,3′-bipyrazol]-5-ol] | 4.55e-05 M | 100% | 101.3% | 22000 nM | 1.72e-06 M | 2.64e-05 M | – | 8.96e-09 M | 5.59E + 00 minutes | – | 4.19E- 02 | 67.6% | 67.6% | – | – | ≤ 10 nM | 8.96e-09 M | 2.64e-05 M | 67.6% | – |
| CC(=O)N1CCC(c2nn(-c3nc4ccc(Cl)cc4[nH]3)c(O)c2CCc2ccc(F)cc2)CC1 [Compound I-702, 1-{4-[1-(5-chloro-1H-1,3-benzodiazol-2-yl)-4-[2-(4-fluorophenyl)ethyl]-5-hydroxy-1H-pyrazol-3-yl]piperidin-1-yl}ethan-1-one] | – | 96.4% | 96.4% | – | 6.05e-07 M | 3.59e-06 M | 7.87e-07 M | – | 5.05E + 00 minutes | 2.72e-06 M | 1.56E- 02 | 100% | – | 148% | – | – | – | – | – | Toxic @ 10 nM |
| CC(C)(O)C(=O)N1CCC(CCc2c(C3CC3)nn(-c3nc4cc(Cl)ccc4[nH]3)c2O)CC1 [Compound I-712, 1-(4-{2-[1-(5-chloro-1H-1,3-benzodiazol-2-yl)-3-cyclopropyl-5-hydroxy-1H-pyrazol-4-yl]ethyl}piperidin-1-yl)-2-hydroxy-2-methylpropan-1-one] | 5.9e-09 M | 100% | 104.4% | 2.19 nM | 6.85e-08 M | 1.99e-08 M | 1.99e-08 M | 1.99e-08 M | 7.54E + 02 minutes | 1.03e-05 M | 1.07E- 02 | 52.3% | 52.6% | 52.6% | – | – | – | – | – | – |
| CC(C)OC(=O)N1CCC(c2nn(-c3nc4ccccc4[nH]3)c(O)c2CCC2CCOCC2)CC1 [Compound I-722, propan-2-yl 4-[1-(1H-1,3-benzodiazol-2-yl)-5-hydroxy-4-[2-(oxan-4-yl)ethyl]-1H-pyrazol-3-yl]piperidine-1-carboxylate] | 1.28e-07 M | – | 86.8% | 4900 nM | 2.24e-06 M | – | 5.49e-06 M | 5.49e-06 M | – | 7.2e-06 M | – | – | 53.4% | 53.4% | – | – | – | – | – | – |
| CN(C)S(=O)(=O)N1CCC(c2nn(-c3nc4ccccc4[nH]3)c(O)c2CCc2ccc(F)cc2)CC1 [Compound I-746, 4-[1-(1H-1,3-benzodiazo1-2-y1)-4-[2-(4-fluorophenyl)ethyl]-5-hydroxy-1H-pyrazol-3-yl]-N,N-dimethylpiperidine-1-sulfonamide] | 6.84e-06 M | – | 101.6% | 49.3 nM | 7.96e-07 M | – | – | – | – | – | – | – | 194% | 194% | – | – | – | – | – | – |
